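All cell lines were grown in 96-well plates and treated with compound for 48 hours. GI50 is the concentration that inhibits growth by half. TGI: total growth inhibition.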
Legend:
Assay in all cases: DTP human tumour cell line panel, 48 h
[1] = test system: COLO 205 colon
[2] = test system: SNB-75 CNS
[3] = test system: SF-268 CNS
[4] = test system: HCT-15 colon
[5] = test system: SR leukemia
[6] = test system: SF-539 CNS
[7] = test system: RPMI-8226 leukemia
[8] = test system: OVCAR-5 ovarian
[9] = test system: K-562 leukemia
[10] = test system: RXF 393 renal

Structure (SMILES)	GI50 [1]	TGI [1]	GI50 [2]	TGI [2]	GI50 [3]	TGI [3]	GI50 [4]	TGI [4]	GI50 [5]	TGI [5]	GI50 [6]	TGI [6]	GI50 [7]	TGI [7]	GI50 [8]	TGI [8]	GI50 [9]	TGI [9]	TGI [10]	GI50 [10]
O=C(c1cccc(O)c1O)c1cn(Cc2ccc(F)cc2)c2cccc(O)c12	2.77 µM	10.7 µM	2.49 µM	12 µM	3.51 µM	16.2 µM	1.16 µM	14.8 µM	0.867 µM	7.81 µM	2.49 µM	11.2 µM	0.564 µM	6.99 µM	9.04 µM	26.4 µM	3.56 µM	> 37.7 µM		
Cc1ccc(Nc2nc3c(s2)C(=O)c2ccccc2C3=O)c(C)c1		35.2 µM		30.1 µM		24.1 µM		41.5 µM				31.4 µM		45.6 µM		34.8 µM		43 µM	29.6 µM	
Nc1ncc(-c2cnn(CCO)c2)c2scc(-c3ccc(NC(=O)Nc4cccc(F)c4)cc3)c12	< 0.01 µM	< 0.0307 µM	0.271 µM	1.74 µM	0.435 µM	9.73 µM	0.371 µM	14.3 µM	< 0.01 µM	1.26 µM			0.454 µM	2.81 µM	0.375 µM	3 µM	0.0399 µM	15.1 µM	1.13 µM	0.241 µM
CCOC(=O)CN=c1nc(SC)sc2c(C(=O)OCC)nc(Sc3ccccc3)n12		> 100 µM				> 100 µM				> 100 µM				> 100 µM		> 100 µM		> 100 µM		
O=C1c2c(Br)sc(Br)c2C(NC(=O)C(F)(F)F)C1O (stereo not drawn)		33.4 µM		> 100 µM		> 100 µM		33.6 µM				32.1 µM				39.6 µM		> 100 µM	27.5 µM	
CCOC(=O)c1cc(/C(=N\O)c2cc(OC)c(OC)c(OC)c2)n2cc(C)cc(C)c12			1.48 µM	4.48 µM	3.9 µM	> 100 µM	2.82 µM	> 100 µM	0.56 µM	4.57 µM			2.46 µM	5.79 µM					5.26 µM	1.95 µM
O=c1cccccc1NCCCNc1cccccc1=O		> 100 µM				> 100 µM		> 100 µM		> 100 µM		> 100 µM		> 100 µM		> 100 µM		> 100 µM	> 100 µM	
CN(C)P(=O)(/C(N)=N/Nc1ccc([N+](=O)[O-])cc1)N(C)C		> 100 µM		> 100 µM		> 100 µM		> 100 µM		> 100 µM		> 100 µM		> 100 µM		> 100 µM		> 100 µM		
CCC[CH2][Sn]1([CH2]CCC)[O]C(=O)C(C(C)C)N=Cc2ccccc2[O]1 (stereo not drawn)	0.213 µM	0.693 µM	0.235 µM	0.776 µM	0.182 µM	1.01 µM	0.345 µM	1.34 µM			0.878 µM	> 100 µM			1.61 µM	2.98 µM	0.171 µM	1.04 µM	0.219 µM	0.0722 µM
CCCCCCCC(CC(=O)NC(CO)C(=O)NC(CO)CC(C)C)OC(=O)CC(CCCCCCC)OC(=O)CC(CCCCCCC)OC1OC(C)C(O)C(OC2OC(C)C(O)C(OC(C)=O)C2O)C1O (stereo not drawn)		18.9 µM		19.1 µM		25.9 µM				13.2 µM		24.5 µM				24 µM		31.4 µM	20.9 µM	
NC(CC(=O)OCc1ccccc1)C(=O)OCc1ccccc1 (stereo not drawn)		> 100 µM				> 100 µM		> 100 µM		> 100 µM		> 100 µM		> 100 µM		> 100 µM				
CCN(CC)CCN1CC(O)=C(c2nc(-c3ccc(Cl)cc3)cs2)C1=N	2.04 µM	4 µM	1.6 µM	3.4 µM	1.87 µM	3.93 µM	1.58 µM	3.42 µM	1.43 µM	3.7 µM	1.55 µM	3.11 µM	2 µM	5.09 µM	6.38 µM	31.3 µM	1.42 µM	3.04 µM		
COc1cc(NC(=O)c2cc(O)c(CC=C(C)C)c(O)c2)cc2c1O[C@]1(C)CC[C@@H](O)C(C)(C)[C@H]1C2	2.24 µM	5.5 µM	0.772 µM	25.9 µM	4.65 µM	72.6 µM	4.09 µM	21.3 µM			0.659 µM	4.02 µM	0.428 µM	2.73 µM	12 µM	66.7 µM	3.58 µM	34.1 µM	2.34 µM	0.434 µM
Cc1nc2ccccc2c(=O)n1NC(=O)c1ccccn1		> 100 µM		> 100 µM		> 100 µM				> 100 µM		> 100 µM		> 100 µM				> 100 µM	> 100 µM	
Cc1cc(S(=O)(=O)Nc2nc(N)nc(N3N=CCC3C)n2)c(SCC(=O)O)cc1Cl (stereo not drawn)		> 10 µM		> 10 µM		> 10 µM		> 10 µM				> 10 µM		> 10 µM		> 10 µM		> 10 µM	> 10 µM	
Clc1nc(Cl)c2ncn(Cc3cccc(COc4cccc(OCc5cccc(Cn6cnc7c(Cl)nc(Cl)nc76)c5)c4)c3)c2n1	> 100 µM	> 100 µM	> 100 µM	> 100 µM	> 100 µM	> 100 µM	39 µM	> 100 µM			> 100 µM	> 100 µM	2.61 µM	54.8 µM	> 100 µM	> 100 µM	71.9 µM	> 100 µM	> 100 µM	7.2 µM
CN(C)c1ccc(N)cc1	1.97 µM	4.54 µM	3.79 µM	17.3 µM	6.96 µM	32.7 µM	6.66 µM	38.5 µM			10.3 µM	25.5 µM	2.71 µM	9.1 µM	13.5 µM	42.6 µM			26 µM	10.4 µM
O=C(O)CP(=S)(S)c1ccccc1 (stereo not drawn)		> 100 µM				> 100 µM				> 100 µM		> 100 µM						> 100 µM	> 100 µM	

Source: PubChem BioAssay (NCI)
